# Tests used:
# [1] = test system: barley seedlings (first leaf); assay: Maximal daily leaf elongation rate (LERmax) of the first leaf of barley seedlings, with GA3; format: in vivo
# Description: The methods have been previously described (Chandler and Robertson, 1999). Curves were fitted to data points using a 4-parameter Hill equation.
# The maximal daily rate of elongation (LERmax) achieved by the first leaf under standard conditions was a robust measure of GA responsiveness (Chandler and Robertson, 1999) and was therefore determined for all of the barley overgrowth lines and their parents (Table 5). […] Three overgrowth alleles (sln1m, sln1n and sln1s) were compared in both their original dwarfing genetic background as well as after back-crossing to the tall WT background. […] In a wild-type background, the overgrowth alleles tended to enhance growth rates.
# [2] = test system: barley endosperm half-grains; assay: α-Amylase production by endosperm half-grains incubated with GA3 (Ceralpha procedure); conditions: for α-Amylase at 42 h / α-Amylase at 72 h: GA3 (1 μM), 22° C.
# Procedure: Endosperm half-grains were prepared and incubated with or without GA3 (1 μM) at 22° C. for 0, 42 or 72 h. To each sample, 1.5 mL of a solution of 10 mm CaCl2 was added, the half-grains were homogenised, and an aliquot of 1 mL was clarified by centrifugation (20,000 g for 5 min). The supernatant was analyzed for α-amylase activity using the Megazyme alpha-amylase (Ceralpha) procedure.
# The production of α-amylase by endosperm half-grains of wild-type barley is dependent on the presence of an active GA. Therefore, monitoring α-amylase activity in the absence of an active GA provided a convenient measure of the extent of ‘basal’ GA signaling in the mutants. […] Among the overgrowth derivatives of Sln1d, the Sln1d.9 derivative was exceptional, accumulating very high levels of α-amylase at both 42 h and 72 h incubation, despite this line showing only a modest restoration of growth rate (Table 5).
structure (smiles),measurement,setting,value
C=C1C[C@]23C[C@@]1(O)CC[C@H]2[C@@]12C=C[C@H](O)[C@@](C)(C(=O)O1)[C@H]2[C@@H]3C(=O)O [GA3],LERmax,"[1]; line Him (Himalaya), genotype WT",52.3 ± 0.1 mm · d^−1
same,LERmax,"[1]; line M463, genotype grd2b",49.8 ± 0.8 mm · d^−1
same,LERmax,"[1]; line M640, genotype Sln1d",12.1 ± 0.3 mm · d^−1
same,LERmax,"[1]; line M693, genotype gse1n",35.3 ± 1.2 mm · d^−1
same,increase in α-amylase activity over basal levels,"[2]; 72 h incubation with GA3, control lines WT, grd2b",~15 fold
same,α-Amylase at 42 h,"[2]; line Him, genotype WT",9.81 ± 0.86 Ceralpha units/grain
same,α-Amylase at 42 h,"[2]; line M463, genotype grd2b",7.20 ± 0.73 Ceralpha units/grain
same,α-Amylase at 72 h,"[2]; line Him, genotype WT",23.1 ± 2.8 Ceralpha units/grain
same,α-Amylase at 72 h,"[2]; line M463, genotype grd2b",18.9 ± 1.4 Ceralpha units/grain

# Reference: US11576326B2, “Wheat with new alleles of Rht-B1” (Commonwealth Scientific and Industrial Research Organisation, priority 2012, dated 2023)
